Measured values reported in PMC3917258, “6-Bromoisatin Found in Muricid Mollusc Extracts Inhibits Colon Cancer Cell Proliferation and Induces Apoptosis, Preventing Early Stage Tumor Formation in a Colorectal Cancer Rodent Model” (Marine Drugs, 2013).

Key:
[1] = system: caspase 3/7 activity in HT29 cells; test: Caspase-Glo 3/7 assay; format: cell-based, human; conditions: positive control, 5 µM, 12 h
Protocol: All media and chemicals were purchased from Sigma Aldrich (Castle Hill, NSW, Australia) unless otherwise stated. HT29 human colorectal cancer cell line (passage no. 36-42) were cultured (37 °C and 5% CO2) in Dulbecco’s Modified Eagle’s Medium (DMEM) supplemented with 4500 mg/L L-glutamine, 10% FBS, 100 U/mL Penicillin/Streptomycin and 1% Non-essential Amino Acid (100×), until the cells reached 70% confluence. The cells were harvested from flasks by trypsinization (1× Trypsin-EDTA) and were seeded (20,000 cells/well) into clear 96-well plates (Costar®, Mt Martha, VIC, Australia) for measurement of cell viability and white (opaque) 96-well plates (Interpath, Heidelberg West, VIC, Australia) for determination of apoptosis and necrosis. HT29 cells were incubated for 48 h, then the media was removed and the cells were washed with PBS. To treat the cells, synthetic 6-bromoisatin was dissolved in 100% dimethylsulphoxide (DMSO) then diluted in media and added to the cells at a range of concentrations from 0.1 to 0.01 mg/mL, in triplicate (final DMSO concentration of 1%). 1% DMSO controls were also included on each plate. Staurosporine (5 µM) for apoptosis and lysis solution (5 μL/well, Promega, Alexandria, NSW, Australia) for necrosis were added to the white plates in triplicate, as positive controls. All cells were treated for 12 h. Morphological changes in the cells were observed on an Olympus CK2 inverted optical microscope (×400 magnification) 12 h after treatment. To measure cell viability, the MTT assay was applied, which measures the reduction of MTT tetrazolium salt to formazan, as previously described. To measure necrosis and apoptosis, CytoTox-ONE Homogeneous Membrane Integrity Assay reagent (Promega) and Caspase-Glo 3/7® assay (Promega) were applied respectively, according to our previous study. These assays were all repeated in triplicate on three separate occasions (n = 3).

[2] = system: lymphoma (U937) cell line; parameters: method as in PMID 17088067; conditions: cited from earlier work
[3] = system: human promyelocytic leukemia (HL60) cancer cells; parameters: method as in PMID 11006132; conditions: 100 µM; cited from earlier work
ERK-2 = system: ERK-2; parameters: method as in PMID 11006132; conditions: 100 µM, compared to the control; cited from earlier work
[4] = system: human neuroblastoma SH-SY5Y cells; parameters: method as in PMID 15876476; conditions: 50 µM; cited from earlier work

With CN[C@@H]1C[C@H]2O[C@@](C)([C@@H]1OC)n1c3ccccc3c3c4c(c5c6ccccc6n2c5c31)C(=O)NC4 [staurosporine, reference compound] the “caspase 3/7 activity” value [1] was “significant increase”.

In the case of O=C1Nc2ccc(Br)cc2C1=O [5-bromo-], the “activity for killing cancer cells relative to unsubstituted isatin” value [2] is listed as 5–10 times.

For O=C1Nc2ccccc2C1=O [isatin, 1H-indole-2,3-dione], the “reduction of cell proliferation” value [3] is given as 80%, the “inhibition of phosphorylation of ERK-2” value (ERK-2) is given as 35% and the apoptosis [4] is given as “apoptosis was observed”.

For O=C1Nc2ccc(I)cc2C1=O [5-iodo-], the “activity for killing cancer cells relative to unsubstituted isatin” value [2] is given as 5–10 times.

In the case of O=C1Nc2ccc(F)cc2C1=O [5-fluoroisatin], the “activity for killing cancer cells relative to unsubstituted isatin” value [2] is listed as 5–10 times.
